Laboratory results reported in patent US8518968B2, “Hydrazone and diacyl hydrazine compounds and methods of use” (The United States of America, as represented by the …, priority 2009, dated 2013).
Read-outs that look alike come from different tables or passages of the source.

How the values were obtained:
ATF3, ATF4, NOXA = test: Immunoblot of ER stress markers, NOXA, ubiquitin and histone H2A in JEKO-1 cells; format: cell-based; details: for expression level of ATF3, ATF4 and NOXA: 8 hrs
[1] = test system: p97 mutants (p97ΔN, p97ΔD2); test: Avidin bead pull-down of p97 mutants with immobilized B-NFC; format: binding; details: p97ΔN or p97ΔD2, avidin beads
293T cells = test: Whole genome array gene expression in 293T cells; format: cell-based, human; details: 10 μM, 10 h
Description: To further confirm that both EerI and 5-NA can influence p97 function in cells, the gene expression pattern of EerI-treated cells is compared to that of 5-NA-treated cells using whole genome array hybridization. […] These studies are performed in 293T cells because they are highly transfectable, making them well suited for genetic manipulation by siRNA. Cells were treated with EerI, CBU-028, or 5-NA each at 10 μM in duplicates for 10 h. Total RNA was extracted using TRIzol reagent (Invitrogen, Carlsbad, Calif.), and subsequently purified using an RNeasy MinElute Cleanup kit (QIAGEN, Valencia, Calif.). For array hybridization, RNA samples were processed and analyzed by The National Institute of Diabetes and Digestive and Kidney Diseases (NIDDK) Microarray Core Facility. The Affymetrix gene expression analysis array for the human HG-U133A—2—0 was used (Affymetrix). The microarray signals were analyzed using the Affymetrix RMA algorithm. […] To determine specific pathways, gene pathway analysis were conducted using software from Genego, Inc., using the statistical significant ANOVA gene list (p<0.05, fold change >1.5) represented on the chip. Microarray data is MIAME compliant and that the raw data has been deposited in the Gene Expression Omnibus (GEO) database (accession no. GSE23849).

JEKO-1 cells [2] = test system: JEKO-1 cells
p97 [3] = target: T1, p97 (Homo sapiens, UniProt P55072); test: Limited trypsin digestion of purified p97; details: purified p97 pre-incubated with compound
Description: Sensitivity of p97 to limited trypsin digestion in the presence and absence of EerI was tested to determine whether binding of EerI to p97 could alter p97 conformation. The purified p97 protein (1.5 μg) was incubated at in a buffer containing 200 ng trypsin in 50 μl volume. Samples were taken out at different time points and mixed with the Laemmli buffer before SDS-PAGE and silver staining analyses.

TCRα-YFP = test: Stabilization of ERAD substrate TCRα-YFP in 293T cells; format: cell-based; details: 293T cells stably expressing TCRα-YFP, 10 μM (10 mM in method), 10 h
Description: 293T cells stably expressing TCRα-YFP are treated with the indicated compounds ([…]) or as a control with DMSO for 10 h. Cells are lysed in RIPA buffer (50 mM Tris, pH 7.5, 1% NP40, 0.1% SDS, 0.5% sodium deoxycholate, 150 mM sodium chloride, 2 mM EDTA and a protease inhibitor cocktail). TCRα-YFP is immunoprecipitated from the cell extract using an anti-green fluorescent protein (GFP) antibody. The precipitated material is analyzed by SDS-PAGE and immunoblotting with antibodies against uUb and GFP. The whole cell extracts are also analyzed by SDS-PAGE and immunoblotting with antibodies against p. 97.

[4] = target: T2, recombinant wild type p97 (Homo sapiens, UniProt P55072); test: Surface plasmon resonance binding to recombinant p97; details: SPR, 25° C., recombinant p97 purified from E. coli; read-out: estimated Kd
T2 construct: made in house; host or cells: E. coli
Description: The strength of EerI binding to recombinant p97 purified from E. coli was tested using surface plasma resonance (SPR). Surface plasmon resonance interaction experiments were carried out at 25° C. on a Biacore T100 system (GE healthcare). […] Briefly, the carboxymethyl group of dextran was activated with N-ethyl-N′-(3-dimethylaminopropyl)carbodiimide (EDC) and N-hydroxysuccinimide (NHS). Then, p97 in a 10 mM sodium acetate (pH 4.5) buffer was injected at a flow rate of 10 μl/min with 2 min contact time and immobilized at a level of ˜8,000 RU. Any remaining reactive sites in the flow cell were blocked by ethanolamine. The drug association and dissociation were monitored at a flow rate of […] with the analyte concentration ranging from 3.125 μM to 50 μM in a buffer containing 10 mM HEPES (pH 7.4), 150 mM NaCl, 0.005% v/v Surfactant P20. Regeneration of the chip was achieved by extended washing with the analyte buffer. SPR signal was normalized using a reference flow cell containing no p97. […] The Rmax was then calculated, and the binding relative to the Rmax from three independent experiments was averaged. […]
The affinity of CBU-028, EERI, and compound 5138380 to purified p97 is measured by surface plasmon resonance (SPR). […] Association and dissociation of the compounds are monitored at a flow rate of 20 μL/min at concentrations ranging from 1.6 μM to 100 μM. […]

GFPμ = test: Stabilization of soluble p97 substrate GFPμ in 293T cells; format: cell-based; details: 10 μM
Description: The experiments are performed as described above for TCRα-YFP, except that 293 T cells stably expressing GFP are used.

[5] = test system: primary chronic lymphocytic leukemia (CLL) cells or normal peripheral blood mononuclear cells (PBMC); test: Cytotoxic activity against primary cells (MTT); format: cell-based; details: 5×10e6 cells/ml, 48 hrs
Description: The cytotoxic activity of CBU-028 or EERI against primary cells is determined as a function of concentration. Cell viability of primary chronic lymphocytic leukemia (CLL) cells or normal peripheral blood mononuclear cells (PBMC) at a concentration of 5×10e6 cells/ml is determined after treatment with CBU-028 or EERI for 48 hrs in triplicates. Viability is determined using the MTT assay, as described previously, with data normalized to the untreated control.

p97 ATPase = p97 ATPase (Homo sapiens, UniProt P55072); test: In vitro ATPase activity of p97; format: biochemical; details: data not shown
Description: To understand how EerI binding might affect p97 function, in vitro ATPase activity of p97 in the presence of EerI was measured. No effect of EerI on the p97 ATPase activity was found (data not shown).

[6] = test system: JEKO-1 cells stably transfected with shRNAs to luciferase or NOXA; test: Effect of NOXA shRNA on cytotoxicity in JEKO-1 cells (MTT); format: cell-based; details: JEKO-1 shLuc vs shNoxa, 24 hours
Description: The effect of NOXA on cytotoxicity of CBU-028, EERI, or bortezomib is determined. FIG. 4 presents graphs comparing CBU-028, EERI, and bortezomib with respect to percent cell viability as a function of concentration, measured using JEKO-1 cells stably transfected with shRNAs to luciferase (shLuc, control, ▪) or NOXA (shNoxa, ◯, sequence: [NT]) after treatment with the compound for 24 hrs, with viability determined with MTT as described above and normalized to the untreated control.

membrane associated p97 = target: T3, membrane associated p97 (Homo sapiens, UniProt P55072); test: Membrane/cytosol fractionation and p97 immunoblot in 293T cells; format: cell-based; details: 10 μM, 6 hr, membrane and cytosol fractions
T3 construct: endogenous in cells; host or cells: 293T cells
Description: Cells were fractionated into membrane and cytosol fractions. Proteins extracted from these fractions were analyzed by immunoblotting with antibodies to p97, E1, and Sec61β, and ER-resident protein as shown in FIG. 2 e.

JEKO-1 cells [7] = test: cells; details: Homo sapiens, JeKo-1, 48 h, JEKO-1 cells, incubated 2 days, MTT, four parameter logistic fit
CLL cells = test: Synergy of CBU-028 with bortezomib against CLL cells (MTT); format: cell-based; details: fixed molar relation 1:2000 (BZM:CBU-028), 48 hours
Description: FIG. 6. […] To test for synergy between BZM and CBU-028, CLL cells were incubated in-vitro to increasing concentrations of each compound individually as well as to a combination of both drugs. The combination was tested at a fixed molar relation of 1:2000, e.g. 4 nM BZM was combined with 8 uM CBU-028. 5×10^6 cells/mL were incubated for 48 hours and cell viability was measured with MTT. Synergy is found where the effect of the combination of the two compounds exceeds the additive effect of each compound separately. The left graph shown the result of a representative experiment (CLL—4235) across all concentrations tested. The graph on the right summarizes the data for 7 individual CLL patients.

[8] = target: N-ethylmaleimide-sensitive factor (NSF) (Homo sapiens, UniProt P46459); test: Avidin bead pull-down of NSF with immobilized B-NFC; format: binding; details: avidin beads
heat shock protein Hsp70 = test: Avidin bead pull-down of Hsp70 with immobilized B-NFC; format: binding; details: avidin beads
p97 [9] = target: T1, p97; test: Avidin bead pull-down of p97 with immobilized B-NFC; format: binding; details: monomeric avidin beads, biotin beads as negative control

T1 sequence (P55072 whole entry): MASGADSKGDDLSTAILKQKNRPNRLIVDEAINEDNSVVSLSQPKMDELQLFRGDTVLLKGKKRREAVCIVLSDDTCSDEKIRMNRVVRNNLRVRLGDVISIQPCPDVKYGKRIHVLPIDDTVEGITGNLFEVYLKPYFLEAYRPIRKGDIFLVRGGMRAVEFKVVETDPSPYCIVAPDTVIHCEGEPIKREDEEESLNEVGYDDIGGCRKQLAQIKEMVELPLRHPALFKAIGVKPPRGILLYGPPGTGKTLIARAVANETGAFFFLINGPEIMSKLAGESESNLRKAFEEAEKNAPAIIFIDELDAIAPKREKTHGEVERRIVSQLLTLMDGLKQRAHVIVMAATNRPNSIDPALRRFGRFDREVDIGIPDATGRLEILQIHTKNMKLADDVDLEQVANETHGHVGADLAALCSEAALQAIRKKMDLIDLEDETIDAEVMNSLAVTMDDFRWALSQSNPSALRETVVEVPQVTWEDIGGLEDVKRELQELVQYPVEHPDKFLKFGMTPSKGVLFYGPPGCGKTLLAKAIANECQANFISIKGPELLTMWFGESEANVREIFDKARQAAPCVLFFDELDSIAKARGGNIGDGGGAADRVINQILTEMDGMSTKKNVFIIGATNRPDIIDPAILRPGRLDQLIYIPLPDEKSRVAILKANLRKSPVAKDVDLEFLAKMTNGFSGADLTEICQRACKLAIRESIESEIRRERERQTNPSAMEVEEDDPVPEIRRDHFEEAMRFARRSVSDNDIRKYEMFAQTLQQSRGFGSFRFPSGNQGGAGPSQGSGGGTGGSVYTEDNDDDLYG
Sequence of p97 mutants (p97ΔN, p97ΔD2) (P55072 209-458 limits assumed, stated change not applied): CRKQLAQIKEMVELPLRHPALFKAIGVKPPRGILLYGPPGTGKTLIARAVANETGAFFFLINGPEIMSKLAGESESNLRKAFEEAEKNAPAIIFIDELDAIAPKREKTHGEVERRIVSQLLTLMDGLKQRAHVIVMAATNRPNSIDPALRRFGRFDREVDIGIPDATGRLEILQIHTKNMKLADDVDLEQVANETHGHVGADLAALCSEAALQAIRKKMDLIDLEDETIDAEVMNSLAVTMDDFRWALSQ
Sequence of p97 ATPase (P55072 whole entry): as the sequence (P55072 whole entry) above
T2 sequence (P55072 whole entry): as above
Sequence of N-ethylmaleimide-sensitive factor (NSF) (P46459 whole entry, species assumed): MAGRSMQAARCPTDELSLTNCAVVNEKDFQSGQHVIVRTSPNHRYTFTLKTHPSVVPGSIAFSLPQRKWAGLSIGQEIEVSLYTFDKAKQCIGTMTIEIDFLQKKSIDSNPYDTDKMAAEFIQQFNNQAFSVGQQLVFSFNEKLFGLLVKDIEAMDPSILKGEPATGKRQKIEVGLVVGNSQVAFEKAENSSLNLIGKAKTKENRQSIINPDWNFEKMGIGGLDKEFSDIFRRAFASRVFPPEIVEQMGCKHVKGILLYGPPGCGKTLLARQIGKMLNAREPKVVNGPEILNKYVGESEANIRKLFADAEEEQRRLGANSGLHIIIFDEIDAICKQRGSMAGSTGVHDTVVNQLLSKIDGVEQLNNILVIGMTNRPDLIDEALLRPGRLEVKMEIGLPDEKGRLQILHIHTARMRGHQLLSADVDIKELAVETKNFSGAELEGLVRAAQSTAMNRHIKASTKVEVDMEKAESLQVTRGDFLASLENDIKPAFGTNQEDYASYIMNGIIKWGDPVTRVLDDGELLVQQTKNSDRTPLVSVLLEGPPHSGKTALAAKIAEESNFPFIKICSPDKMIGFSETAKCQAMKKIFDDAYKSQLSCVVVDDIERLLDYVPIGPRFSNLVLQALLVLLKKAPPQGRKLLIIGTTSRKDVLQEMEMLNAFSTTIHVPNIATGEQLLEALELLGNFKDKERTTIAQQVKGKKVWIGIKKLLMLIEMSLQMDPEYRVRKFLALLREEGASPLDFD
T3 sequence (P55072 2-806 limits assumed): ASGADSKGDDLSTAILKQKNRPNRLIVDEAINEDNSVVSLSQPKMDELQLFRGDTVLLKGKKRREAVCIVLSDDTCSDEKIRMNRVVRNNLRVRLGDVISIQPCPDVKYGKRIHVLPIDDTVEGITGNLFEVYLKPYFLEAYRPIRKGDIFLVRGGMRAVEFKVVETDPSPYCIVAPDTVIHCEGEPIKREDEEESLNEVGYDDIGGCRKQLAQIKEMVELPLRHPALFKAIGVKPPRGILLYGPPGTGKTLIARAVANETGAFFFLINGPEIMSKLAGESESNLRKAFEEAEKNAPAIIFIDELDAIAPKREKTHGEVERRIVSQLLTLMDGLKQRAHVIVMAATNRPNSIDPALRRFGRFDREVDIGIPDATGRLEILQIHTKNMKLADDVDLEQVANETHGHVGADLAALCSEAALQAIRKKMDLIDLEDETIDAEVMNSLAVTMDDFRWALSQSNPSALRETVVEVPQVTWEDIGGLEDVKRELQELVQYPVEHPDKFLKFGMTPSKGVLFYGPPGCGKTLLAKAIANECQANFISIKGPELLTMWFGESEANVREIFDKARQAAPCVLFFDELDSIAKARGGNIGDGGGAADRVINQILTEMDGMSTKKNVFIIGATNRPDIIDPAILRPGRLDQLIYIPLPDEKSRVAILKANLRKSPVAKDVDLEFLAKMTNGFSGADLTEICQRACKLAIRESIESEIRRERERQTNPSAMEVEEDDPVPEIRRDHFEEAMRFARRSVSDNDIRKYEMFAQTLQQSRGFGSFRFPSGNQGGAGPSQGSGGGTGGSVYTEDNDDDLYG

## 5-nitrofuryl-acrolein
ATF3, ATF4, NOXA; 2.5 μM
  expression level of ATF3, ATF4 and NOXA: comparable to that present after treatment with EERI
[1]
  binding of p97 mutants to immobilized compound: also bound
293T cells
  number of genes up- or down-regulated by at least 2-fold by both EerI and 5-NA: 29 genes
  number of genes up- or down-regulated by at least 2-fold only by this compound: 306 genes
JEKO-1 cells [2]
  cell viability / cytotoxic activity (in words): cytotoxic activity at a concentration lower than that shown by EERI

## CC1(C)C(N(O)C(=O)Nc2ccc(C(F)(F)F)cc2)N(c2ccc(Cl)cc2)C(=O)N1CC(=O)N/N=C/C=C/c1ccc([N+](=O)[O-])o1 (stereo not shown) [CBU-003]
p97 [3]
  sensitivity of p97 to limited trypsin digestion: caused a delay in the proteolysis of two p97 fragments by trypsin
TCRα-YFP
  stabilization of ERAD substrate TCRα-YFP: stabilize the ERAD substrate TCRα-YFP in polyubiquitinated forms
ATF3, ATF4, NOXA; 10 μM
  expression level of ATF3, ATF4 and NOXA: comparable to that present after treatment with EERI
[4]
  Kd: 5 to 10 µM
GFPμ
  stabilization of soluble p97 substrate GFPμ: stabilize the soluble p97 substrate GFPμ in polyubiquitinated forms
[5]
  sensitivity of PBMC compared with CLL cells: PBMC are less sensitive
p97 ATPase
  effect on p97 ATPase activity: No effect
[6]
  requirement of NOXA for cytotoxicity: Noxa is equally required
293T cells
  number of genes up- or down-regulated by at least 2-fold by both EerI and 5-NA: 29 genes
  number of genes up- or down-regulated by at least 2-fold only by this compound: 25 genes
Membrane associated p97
  location of slow migrating (oligomerized) p97 species induced by compound: primarily in the membrane fraction, not in the cytosol fraction
JEKO-1 cells [2]; JEKO-1 cells, incubated 2 days, MTT, four parameter logistic fit
  IC50: 3.5 µM

## O=C(N/N=C/C=C/c1ccc([N+](=O)[O-])o1)c1cc2ccccc2cc1O [CBU-028, (E)-3-hydroxy-N′-((E)-3-(5-nitrofuran-2-yl)allylidene)-2-naphthohydrazide]
JEKO-1 cells [7]
  IC50: 3 µM
TCRα-YFP
  stabilization of ERAD substrate TCRα-YFP: stabilize the ERAD substrate TCRα-YFP in polyubiquitinated forms
ATF3, ATF4, NOXA; 10 μM, time course
  NOXA protein level: upregulates NOXA protein level
  expression of ER stress markers ATF3 and ATF4: induces expression of the ER stress markers ATF3 and ATF4
  polyubiquitinated proteins: causes accumulation of polyubiquitinated proteins
  ubiquitinated histone H2A: downregulates ubiquitinated histone H2A
CLL cells
  synergy with bortezomib: Synergizes with Bortezomib
GFPμ
  stabilization of soluble p97 substrate GFPμ: stabilize the soluble p97 substrate GFPμ in polyubiquitinated forms
[5]
  sensitivity of PBMC compared with CLL cells: PBMC are less sensitive
[6]
  requirement of NOXA for cytotoxicity: Noxa is equally required

## O=C(CCCC[C@@H]1SCC2NC(=O)NC21)N/N=C/C=C/c1ccc([N+](=O)[O-])o1 (stereo partly drawn) [CBU-032, (E)-N′-((E)-3-(5-nitrofuran-2-yl)allylidene)-5-((4S)-2-oxohexahydro-1H-thieno[3,4-d]imidazol-4-yl)pentanehydrazide]
JEKO-1 cells [7]
  IC50: 25 µM
[8]
  binding of NSF to immobilized compound: neither the heat shock protein Hsp70, nor the homologous AAA ATPase, N-ethylmaleimide-sensitive factor (NSF), showed significant binding
Heat shock protein Hsp70
  binding of Hsp70 to immobilized compound: neither the heat shock protein Hsp70, nor the homologous AAA ATPase, N-ethylmaleimide-sensitive factor (NSF), showed significant binding
p97 [9]
  precipitation of p97 by immobilized compound: consistently precipitated more p97, than biotin
